Structures are written as SMILES.

For experiment [1], the system named is human fibroblasts HFF cells. Description: Growth inhibition of human fibroblasts HFF cells. It counts as cell-based. The method, then:
(§1) LNCaP and 22Rv1 prostate cancer cells and human fibroblasts HFF cells were treated with compounds 1, 2, 3, and 4.

In experiment [2] the test system is LNCaP prostate cancer cells. Kind of experiment: Growth inhibition of LNCaP prostate cancer cells. It counts as cell-based. As to conditions: Homo sapiens. The procedure: as §1
For experiment [3], the system named is 22Rv1 prostate cancer cells. Description: Growth inhibition of 22Rv1 prostate cancer cells. Format: cell-based. Particulars: Homo sapiens. The method, then: as §1
Experiment [4] concerns cFLIP. Description: cFLIP reduction in ACHN cells (Western blotting). Format: cell-based, human. Particulars: ACHN renal carcinoma cells; 125, 250, 500 nM; 24 h; compared with compound 1. The method, then:
This example the effect of compounds 1 and 3 on the reduction of cFLIP in ACHN human carcinoma cells as a function of concentration after 24 exposure to the compounds.
ACHN human renal carcinoma cells were treated with 125 nM, 250 nM, and 500 nM of compounds 1 and 3. After 24 h exposure to the compounds, Western blotting was performed to separate FLIPL and FLIPS, and the results shown in FIG. 3.

Experiment [5] has as its system cFLIP. Kind of experiment: cFLIP reduction in M14 melanoma cells (Western blotting). As to conditions: 0-500 nM, 24 h, compared with compound 1. Format: cell-based, human. The method, then: M14 human melanoma cells were treated with 0, 31.25, 62.5, 125, 250, or 500 nM of compounds 1 and 3. After 24 h, Western blotting was performed to separate cFLIPL, cFLIPS, and GAPDH.

Another experiment has as its system B16F10 melanoma. Description: B16F10 melanoma xenograft model in C57B/6 mice. Format: in vivo. As to conditions: intra-tumor twice a week for 3 weeks; versus vehicle and compound 1. The method, then:
C57B/6 mice were injected with 5×10^5 B16F10 melanoma cells s.c. Tumors were allowed to grow 8-10 days and then vehicle, compound 1, or compound 3 were injected intra-tumor twice a week for 3 weeks. Tumor growth was monitored until endpoint.

In experiment [6] the test system is 888, 1383, and Baldwin renal melanoma cells. Description: Sensitization of 888, 1383 and Baldwin melanoma cells to TRAIL apoptosis. Particulars: 888, 1383, Baldwin melanoma cells; compared to Birinapant or ABT-737. Format: cell-based, human. The method, then: 888, 1383, and Baldwin renal melanoma cells were treated with compound 1 of compound 3, the Birinapant, or ABT-737 in the presence and absence of TRAIL.

In experiment [7] the test system is cFLIP. Description: cFLIP levels in LNCaP prostate cancer cells (Western blot). Format: cell-based. Particulars: 125 nM, 250 nM, or 500 nM. The procedure:
LNCaP prostate cancer cells were treated with 125 nM, 250 nM, or 500 nM of compounds 1 or 3.

In experiment [8] the test system is cFLIP. Description: cFLIP levels in 22Rv1 prostate cancer cells (Western blot). Format: cell-based. Particulars: 22Rv1 cells; 125 nM, 250 nM, or 500 nM. The method, then: 22Rv1 prostate cancer cells were treated with 125 nM, 250 nM, or 500 nM of compounds 1 or 3.
Experiment [9] relates to ACHN, SN12C, Caki-2, TK-10, and UO-31 renal carcinoma cells. Description: Sensitization of renal carcinoma cell lines to TRAIL apoptosis, comparison with IAP and Bcl-2 antagonists. It counts as cell-based, human. Particulars: 5 renal carcinomas; compared to Birinapant, GDC-0152, LCL-161, ABT-199 and ABT-737. The procedure:
ACHN, S[…], Caki-2, TK-10, and UO-31 cells were treated with compound 1, the IAP antagonists Birinapant, GDC-0152, or LCL-161 and the Bcl-2 antagonists ABT-199 and ABT-737 in the presence and absence of TRAIL.

Another experiment concerns SK-MEL-28 melanoma cells. Description: Killing of SK-MEL-28 melanoma cells by activated human T cells (crystal violet). It counts as cell-based. As to conditions: PCC 500 nM 24 h before T cells. The method, then:
6 well costar plates were precoated with anti-CD3 (1 ug/ml) in PBS overnight at 4° C. Wells were washed with PBS then blocked with RPMI+10% FBS for 30 min before adding anti-CD28 (0.2 ug/ml) and purified T cells.
T cells were isolated from human PBMCs using Pan T cell isolation kit (Miltenyi Biotech) as per manufacturers protocol, added to the costar plates and incubated at 37° C. 24 hours later activated T cells were used as effectors.
SK-MEL-28 cells (200,000) were added to costar 6 plates. After 24 h PCC (500 nM) or control DMSO was added, followed 24 h later by addition of activated T cells at different target to effector ratios. After a further 24 hours plates were washed and adherent melanoma cells were fixed with methanol and stained with crystal violet.
SK-MEL-28 melanoma cells were treated with media, compound 1, or compound 1+α-TNFα and then incubated with the activated human T cells.

In the case of `COc1ccc(C(=O)OC[C@]23CC[C@H]4[C@@H](C[C@H]5O[C@]56CC=CC(=O)[C@]46C)[C@]2(O)CC[C@@]3(O)[C@@](C)(O)[C@H]2CC(C)=C(C)C(=O)O2)cc1` [Compound 2], the IC50 in [1] was found to be 938 ± 10 nM; in experiment [2] it was 18 ± 2 nM; in [3], 16 ± 4 nM.

Take `CC1=C(C)C(=O)O[C@@H]([C@](C)(O)[C@]2(O)CC[C@@]3(O)[C@@H]4C[C@H]5O[C@]56CC=CC(=O)[C@]6(C)[C@H]4CC[C@]23COC(=O)c2ccc(C)o2)C1` [Compound 3, withaperuvin E]: the cFLIP reduction entry with cFLIP [4] and with cFLIP [5] was “elevated activity over compound 1” throughout. Also, in the experiment on B16F10 melanoma, the tumor volume result is listed as “lowest”. In addition, the “sensitization of TRAIL apoptosis” value in experiment [6] was “superior results”. In addition, the IC50 worked out at 892 ± 119 nM in [1], 14 ± 1 nM in [2] and 10 ± 2 nM in experiment [3]. The cFLIP levels result with cFLIP [7] and in the experiment on cFLIP [8] was “reduction of cFLIP levels” each time.

Turning to `CC1=C(C)C(=O)O[C@@H]([C@](C)(O)[C@]2(O)CC[C@@]3(O)[C@@H]4C[C@H]5O[C@]56CC=CC(=O)[C@]6(C)[C@H]4CC[C@]23COC(=O)c2ccc(C)nc2)C1` [Compound 4], the IC50 in [1] is 945 ± 92 nM; in experiment [2], 17 ± 8 nM; in [3], 17 ± 1 nM.

Consider `CC(=O)OC[C@]12CC[C@H]3[C@@H](C[C@H]4O[C@]45CC=CC(=O)[C@]35C)[C@]1(O)CC[C@@]2(O)[C@@](C)(O)[C@H]1CC(C)=C(C)C(=O)O1` [Compound 1, Physachenolide C], for which the “sensitization of TRAIL apoptosis” value in [9] and in [6] was “superior results” throughout. Further, the half-inhibitory concentration (IC50) in [1] is > 2000 nM; in experiment [2], 37 ± 2 nM; in [3], 48 ± 2 nM. Further, in the experiment with SK-MEL-28 melanoma cells, the “killing of human melanoma cells by activated T cells” value is reported as “enhanced the killing”. Besides, the cFLIP levels result with cFLIP [7] and in the experiment with cFLIP [8] was “reduction of cFLIP levels” in each case.

The record behind these values is US12018045B2, “17-beta-hydroxywithanolides and use thereof in treating cancer” (The United States of America, as represented by the …, priority 2018, dated 2024).
